{"source": "patent US20260199267A1", "about": "“METHOD FOR PREPARING ENDO-C[…] FROM VEGETABLE OILS USING LIPASE AND USE THEREOF” (KOREA RESEARCH INSTITUTE OF BIOSCIENCE AND BIOTECHNOLOGY, priority 2022, published 2026)", "format_in_all_cases": "cell-based", "key": {"[1]": {"molecular_target": "cannabinoid receptor 2 (CB2) (Homo sapiens, UniProt P34972)", "sequence (P34972 whole entry)": "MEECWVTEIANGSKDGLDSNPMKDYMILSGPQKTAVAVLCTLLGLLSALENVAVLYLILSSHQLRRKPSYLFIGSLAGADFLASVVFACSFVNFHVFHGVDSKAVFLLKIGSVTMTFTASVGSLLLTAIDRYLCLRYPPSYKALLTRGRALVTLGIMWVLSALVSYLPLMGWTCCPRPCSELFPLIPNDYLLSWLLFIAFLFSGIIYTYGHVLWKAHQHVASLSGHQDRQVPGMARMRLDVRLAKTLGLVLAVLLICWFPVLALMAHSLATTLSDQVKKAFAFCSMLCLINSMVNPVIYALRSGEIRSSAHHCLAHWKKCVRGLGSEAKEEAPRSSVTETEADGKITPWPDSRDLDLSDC", "test": "agonist effect on cannabinoid receptor, cAMP measurement", "settings": "CB2, concentration-response graph", "protocol": "The efficacy was evaluated by measuring the amount of cyclic adenosine monophosphate (cAMP) generated from adenosine triphosphate (ATP) through the activation of adenylyl cyclase, which is triggered by G-protein alpha (G-protein a) as part of the stepwise signal transduction pathway initiated upon the binding of the test sample to the receptor. The efficacy was evaluated by measuring the amount of cyclic adenosine monophosphate (cAMP) generated from adenosine triphosphate (ATP) through G-protein alpha (G-protein a), which is activated by the binding of the sample to the receptor as part of the stepwise signal transduction pathway, and adenylyl cyclase, which is activated by G-protein a."}, "[2]": {"system": "IL-6 production in LPS-treated RAW 264.7 cells", "test": "pro-inflammatory cytokine production, ELISA", "settings": "reference inhibitor, concentration not given, 24 h", "experimental": "(§1) RAW 264.7 cells were dispensed into a 24-well plate at a density of […], incubated for 24 hours, and then treated with a non-cytotoxic concentration of the sample and LPS ([…]), followed by an additional 24-hour incubation. The cell culture was centrifuged at 5,000 rpm for 5 minutes, and the supernatant was collected. The levels of […] (FIG. 88), IL-6 (FIG. 89), and TNF-α (FIG. 90) were then measured using an ELISA kit according to the manufacturer's instructions."}, "[3]": {"system": "TNF-α production in LPS-treated RAW 264.7 cells", "test": "pro-inflammatory cytokine production, ELISA", "settings": "reference inhibitor, concentration not given, 24 h", "experimental": "as §1"}, "[4]": {"system": "IL-1β production in LPS-treated RAW 264.7 cells", "test": "pro-inflammatory cytokine production, ELISA", "settings": "reference inhibitor, concentration not given, 24 h", "experimental": "as §1"}}}
{"smiles": "CCCCCCC(C)(C)c1ccc([C@@H]2C[C@H](O)CC[C@H]2CCCO)c(O)c1", "note": "[CP55940]", "values": [{"measurement": "Graph Min", "setting": "[1]", "value": 5.4524}]}
{"smiles": "N.S=C(S)N1CCCC1", "note": "[APDTC]", "values": [{"measurement": "decrease of IL-6 production", "setting": "[2]", "value": 47.12, "unit": "%"}, {"measurement": "decrease of TNF-α production", "setting": "[3]", "value": 20.28, "unit": "%"}, {"measurement": "decrease of IL-1β production", "setting": "[4]", "value": 45.39, "unit": "%"}]}
